Measurements published in patent US20210163451A1, “METHODS AND COMPOSITIONS FOR SUBSTITUTED 2,5-DIKETOPIPERAZINE ANALOGS” (University of Florida Research Foundation, Inc., priority 2018, published 2021).

Tests used:
Format in all cases: biochemical, S. scabies 87.22
TxtB = TxtB substrate scope in TxtA/TxtB reactions; design: key to TxtB substrate: +++++: Five ‘+’ represents the strong reactivity; ++++: The number of ‘+’ represents the reactivities of the enzymes to the substrate; +++: The number of ‘+’ represents the reactivities of the enzymes to the substrate; ++: The number of ‘+’ represents the reactivities of the enzymes to the substrate; +: one represent very weak reactivities
Protocol: Using the above strategy, it was determined that TxtB accepted only I-Trp among all 20 natural amino acids in the reaction (FIG. 2B, Table 1). When incubating with 15 I-Trp analogs with various substituents at α-position or C4, C5, C6 and C7 of I-Trp indole (Table 1), TxtB was able to use 4-F, 4-Me, 5-F, and 6-F-tryptophan as substrates in the DKP synthesis (Table 1). […] Indeed, the Micklefield group recently produced several thaxtomin analogs with C4-H, F, Cl, Br, or Me when expressing txtA/B in S. albus. The advanced understanding of substrate scopes of TxtA/B led to enzymatic creation of a library of 30 DKPs with 5 I-Trp analogs and 6 I-Phe analogs (FIG. 3C). The production of all DKPs were confirmed in HPLC analysis and verified in high resolution LC-MS analysis (Table 2).
(§1) TxtA/B reaction: 100 mM Tris-Cl (PH=8.0), 0.5 mM Nitro-L-tryptophan or L-tryptophan, 0.55 mM L-Phenylalanine, 3.2 μM txtA, 14.5 μM txtB, 2.5 mM ATP and 2 mM SAM in 100 μL reaction. 21° C. shaken with 400 rpm for 20 hours.
To probe the basis of chemical diversity of Thx DKP scaffold, next characterized was the substrate scopes of TxtA and TxtB. […] Bulkier aryl substituents decreased enzyme activity. […] From the modelled structure of TxtA adenylation (A) domain (FIG. 23), it was identified that Trp225 likely controls the binding of bulky L-Phe analogues. Indeed, the TxtA W225S mutant [Kries, H. et al. Angew. Chem. Int. Ed. Engl. […] We confirmed the product as p-azido-Thx D by HRMS, MS/MS, 1D and 2D NMR analysis (FIGS. 24-25). The substrate preference of TxtB was then assessed. […] Additionally, TxtB utilized 4F-L-, 5F-L-, 4Me-D,L- and 6F-D,L-Trp out of 15 L-Trp analogues carrying various substituents (Table 7) as substrates to synthesize desnitro dimethylated DKP analogues (FIG. 22). […] The tolerance to small modifications on L-Trp indole by TxtB agreed with a recent in vivo study by the Micklefield group [Winn, M. et al. Angew. Chem. Int. Ed. Engl. 2018 57:6830-6833]. […] Chem. Biol. 2018 14: 428-430].
(§2) The TxtA/B reaction solutions (100 μl) typically contained 100 mM Tris-Cl, pH 9.0, 0.5 mM amino acid substrates, 10 mM MgCl2, 2.5 mM ATP and 2 mM SAM. The reactions were initiated by adding 1.2 μM TxtA and 1.3 μM TxtB (final concentration) and incubated at 21° C. with shaking at 400 rpm. After 30 h, the reactions were terminated by mixing with 200 μl of methanol. Quenched solutions were centrifuged at 4° C., 16,000×g for 15 min and clear supernatants were collected and subjected to HPLC and LCMS analysis as detailed below. All experiments were repeated independently at least twice. The reaction solutions of TB14 and TxtA and TxtB were the same as those of TxtA and TxtB except the inclusion of 1.5 mM NAPDH, 0.75 mM NOC-5 and 11.1 μM TB14. The reactions were run for 30 h and the products were analyzed and quantitated as described above.

TxtA = TxtA substrate scope in TxtA/TxtB reactions
Protocol: To explore whether TxtA/B are versatile to generate a library of thaxtomin D analogs, enzymes' substrate tolerance was then examined in the reactions. […] Subsequently, the substrate scope of TxtA with 17 I-Phe analogs was assessed with various substituents at α-position or C2, C3, and C4 of the aryl group (Table 1).
as §1
(§3) TB14 and txtA/B coupling reaction: 100 mM Tris-Cl (PH=8.0), 0.5 mM L-tryptophan, 0.55 mM L-Phenylalanine, 1.5 mM NAPDH, 0.75 mM NOC-5, 3.2 μM txtA, 14.5 μM txtB, 2.5 mM ATP, 2 mM SAM and 11.1 μM TB14 in 100 μL reaction. Opened to air, 21° C. shaken with 400 rpm for 30 hours.
(§4) To probe the basis of chemical diversity of Thx DKP scaffold, next characterized was the substrate scopes of TxtA and TxtB. […] Chem. Int. Ed. Engl. […] The substrate preference of TxtB was then assessed. […] Chem. Int. Ed. Engl. 2018 57:6830-6833]. […] Chem. Biol. 2018 14: 428-430].
as §2

TxtA-W225S = TxtA-W225S mutant substrate scope in TxtA/TxtB reactions
Protocol: The nitro group of thaxtomins is essential for herbicidal activity, and is installed by TxtE. […] NADPH, NOC-5 as NO donor and SAM were included in the reaction. […] To further expand the substrate scope of TxtA, Trp225 was mutated into Ser in TxtA.
as §1, §3, §4, §2

[1] = Example 1, TxtA/B reaction with 4-NO2-L-Trp as TxtB substrate
[2] = Example 2, reaction of TB14, TxtA and TxtB

Cc1cccc2[nH]cc(CC(N)C(=O)O)c12 (racemic) [4Me-D,L-Tryptophan]
TxtB substrate (TxtB; Table 1, Example 1): ++ | TxtB substrate (TxtB; Table 7, Example 2): +++

NC(Cc1c[nH]c2cc(F)ccc12)C(=O)O (racemic) [6F-Tryptophan, 6F-D,L-tryptophan]
TxtB substrate (TxtB; Table 1, Example 1): ++ | TxtB substrate (TxtB; Table 7, Example 2): +

N[C@@H](Cc1ccccc1Br)C(=O)O [2Br-L-phenylalanine]
TxtA substrate (TxtA; Table 1, Example 1): + | TxtA substrate (TxtA; Table 7, Example 2): +

N[C@@H](Cc1ccccc1F)C(=O)O [2F-L-phenylalanine]
relative activity of TxtA toward substrate, relative to L-Phe (TxtA; [1]): same level of activity | relative activity of TxtA toward substrate, relative to L-Phe (TxtA; [2]): ~73% | TxtA substrate (TxtA; Table 1, Example 1): ++++ | TxtA substrate (TxtA; Table 7, Example 2): ++++

Cc1ccccc1C[C@H](N)C(=O)O [2Me-L-phenylalanine]
TxtA substrate (TxtA; Table 1, Example 1): +++ | TxtA substrate (TxtA; Table 7, Example 2): ++

N[C@@H](Cc1cccc(Br)c1)C(=O)O [3Br-L-phenylalanine]
TxtA substrate (TxtA; Table 1, Example 1): + | TxtA substrate (TxtA; Table 7, Example 2): +

N[C@@H](Cc1cccc(Cl)c1)C(=O)O [3Cl-L-phenylalanine]
TxtA substrate (TxtA; Table 1, Example 1): ++ | TxtA substrate (TxtA; Table 7, Example 2): +

N[C@@H](Cc1cccc(F)c1)C(=O)O [3F-L-phenylalanine]
relative activity of TxtA toward substrate, relative to L-Phe (TxtA; [1]): same level of activity | relative activity of TxtA toward substrate, relative to L-Phe (TxtA; [2]): equally active | TxtA substrate (TxtA; Table 1, Example 1): +++++ | TxtA substrate (TxtA; Table 7, Example 2): +++++

Cc1cccc(C[C@H](N)C(=O)O)c1 [3Me-L-phenylalanine]
relative activity of TxtA toward substrate, relative to L-Phe (TxtA; [1]): about 12% | relative activity of TxtA toward substrate, relative to L-Phe (TxtA; [2]): about 27% | TxtA substrate (TxtA; Table 1, Example 1): ++ | TxtA substrate (TxtA; Table 7, Example 2): ++

[N-]=[N+]=Nc1ccc(C[C@H](N)C(=O)O)cc1 [4-Azidophenylalanine]
relative activity of TxtA toward substrate, relative to L-Phe (TxtA; [2]): did not accept | substrate preference of TxtAW225S mutant (TxtA-W225S; Example 1): strong preference | substrate preference of TxtA W225S mutant (TxtA-W225S; Example 2, reaction with TB14, TxtA and TxtB): strong preference over L-Phe | TxtA-W225S substrate (TxtA-W225S; Table 1, Example 1): ++ | TxtAW225S substrate (TxtA-W225S; Table 7, Example 2): ++

N[C@@H](Cc1c[nH]c2cccc([N+](=O)[O-])c12)C(=O)O [4-nitro-L-Tryptophan]
TxtB substrate (TxtB; Table 1, Example 1): +++++ | TxtB substrate (TxtB; Table 7, Example 2): +++++

N[C@@H](Cc1ccc(Br)cc1)C(=O)O [4Br-L-phenylalanine]
TxtA substrate (TxtA; Table 1, Example 1): + | TxtA substrate (TxtA; Table 7, Example 2): +

N[C@@H](Cc1ccc(Cl)cc1)C(=O)O [4Cl-L-phenylalanine]
TxtA substrate (TxtA; Table 1, Example 1): ++ | TxtA substrate (TxtA; Table 7, Example 2): +

N[C@@H](Cc1c[nH]c2cccc(F)c12)C(=O)O [4F--Tryptophan, 4F-L-tryptophan]
TxtB substrate (TxtB; Table 1, Example 1): + | TxtB substrate (TxtB; Table 7, Example 2): +
